Article PMC3326647, “Single Enantiomer of YK-4-279 Demonstrates Specificity in Targeting the Oncogene EWS-FLI1” (Oncotarget, 2012)

Key:
Assay type in all cases: cell-based
TC71 cells = experiment: Cellular proliferation (WST) assay, TC71; conditions: for IC50: TC-71, 72 h, TC71, ESFT (Type 1), read-out: IC50 at 3 days (+/− SEM)
Protocol: (§1) TC32, TC71, RDES, MMH-ES-1, STA-ET 7.2, A4573, and PC3 cells were grown in RPMI with 10% FBS and 1% HEPES. SKES cells were grown in McCoy's 5A medium with 15% FBS. MCF7, MDA-MB-231, PANC1, and ASPC1 cells were grown in colorless DMEM with 10% FBS. Cells were grown at a plating density of 5,000 – 15,000 cells/well, depending on cell line, in a 96-well plate. Small molecule or vehicle alone (DMSO) were added to cells in appropriate growth media the day after plating. After three days, viable cells were quantified using WST (Roche) according to the manufacturer's protocol. IC50 values were calculated by sigmoidal dose-response curve fit using Prism Graphpad 4.0.

MDA-MB-231 cells = experiment: Cellular proliferation (WST) assay, MDA-MB-231; conditions: Homo sapiens, 72 h; MDA-MB-231, breast; read-out: IC50 at 3 days (+/− SEM)
Protocol: as §1

ASPC1 cells = experiment: Cellular proliferation (WST) assay, ASPC1; conditions: Homo sapiens, 72 h; ASPC1, pancreatic; read-out: IC50 at 3 days (+/− SEM)
Protocol: as §1

[1] = test system: Cyclin D1b/D1a mRNA level in A673i cells; experiment: Quantitative RT-PCR of Cyclin D1b/D1a mRNA in A673i cells; conditions: 1μM, 8 hours
Protocol: A673i cells were treated with 1μM small molecule for 8 hours. Positive control cells were treated with tetracycline for 72 hours to knock down expression of EWS-FLI1. Total RNA was extracted using an RNeasy Micro Kit (Qiagen) and reverse transcribed using the Transcriptor First Strand cDNA Synthesis Kit (Roche) per the manufacturer's instructions. qPCR was performed using an Eppendorf Mastercycler Realplex with FastStart Universal SYBR Green Master with ROX (Roche) with primers for 18S, CyclinD1a, and CyclinD1b. Data were analyzed for expression relative to 18S using the comparative Ct method. Data from four separate experiments performed in duplicate were averaged.

[2] = target: T1, EWS-FLI1 transcriptional activity (Homo sapiens, UniProt Q01543+Q01844); experiment: NR0B1-luciferase reporter assay in COS7 cells transfected with EWS-FLI1; conditions: for luciferase activity compared to vehicle: COS7 cells, dose of 0.3μM
T1 sequence (Q01844 1-264): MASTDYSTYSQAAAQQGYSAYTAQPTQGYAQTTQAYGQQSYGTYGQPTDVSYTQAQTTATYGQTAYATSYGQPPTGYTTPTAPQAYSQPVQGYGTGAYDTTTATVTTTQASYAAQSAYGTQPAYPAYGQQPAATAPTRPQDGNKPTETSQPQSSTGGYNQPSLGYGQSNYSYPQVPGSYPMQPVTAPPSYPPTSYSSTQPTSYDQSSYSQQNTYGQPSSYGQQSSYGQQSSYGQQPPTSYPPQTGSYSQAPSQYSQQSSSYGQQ
T1 sequence (Q01543 220-452): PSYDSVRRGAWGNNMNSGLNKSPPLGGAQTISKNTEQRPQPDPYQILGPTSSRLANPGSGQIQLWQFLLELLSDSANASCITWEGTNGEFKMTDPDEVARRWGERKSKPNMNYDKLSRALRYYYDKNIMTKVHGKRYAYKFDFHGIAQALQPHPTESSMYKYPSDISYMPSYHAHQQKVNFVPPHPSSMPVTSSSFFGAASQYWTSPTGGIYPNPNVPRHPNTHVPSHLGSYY
Protocol: Cells were transiently transfected with the NR0B1 luciferase reporter and full length EWS-FLI1 into COS7 cells with Fugene-6 (Roche) according to the manufacturer's protocol. Two hours after transformation, cells were treated with 0.3, 1, and 3μM of YK-4-279, (S)-YK-4-279, and (R)-YK-4-279. Luciferase activity was measured 16 hours after treatment. Protein concentration was normalized by absorbance at 280nm. All luciferase assays were performed using a luciferase assay kit according to the manufacturer's protocol (Promega).

[3] = target: T2, EWS-FLI1/RHA interaction in TC32 cells (Homo sapiens, UniProt Q01543+Q01844); experiment: Co-immunoprecipitation of EWS-FLI1 and RHA from treated TC32 cells, western blot densitometry; conditions: 15 hours; for RHA coimmunoprecipitated with EWS-FLI1: 10μM; for IC50: 0.3 to 10μM, read-out: IC50, densitometry of RHA relative to FLI1
T2 construct: FLI1 C-terminal portion (fusion partner, Q01543); endogenous in cells; host or cells: TC32
T2 sequence (Q01844+Q01543 with tags, fused parts or gaps): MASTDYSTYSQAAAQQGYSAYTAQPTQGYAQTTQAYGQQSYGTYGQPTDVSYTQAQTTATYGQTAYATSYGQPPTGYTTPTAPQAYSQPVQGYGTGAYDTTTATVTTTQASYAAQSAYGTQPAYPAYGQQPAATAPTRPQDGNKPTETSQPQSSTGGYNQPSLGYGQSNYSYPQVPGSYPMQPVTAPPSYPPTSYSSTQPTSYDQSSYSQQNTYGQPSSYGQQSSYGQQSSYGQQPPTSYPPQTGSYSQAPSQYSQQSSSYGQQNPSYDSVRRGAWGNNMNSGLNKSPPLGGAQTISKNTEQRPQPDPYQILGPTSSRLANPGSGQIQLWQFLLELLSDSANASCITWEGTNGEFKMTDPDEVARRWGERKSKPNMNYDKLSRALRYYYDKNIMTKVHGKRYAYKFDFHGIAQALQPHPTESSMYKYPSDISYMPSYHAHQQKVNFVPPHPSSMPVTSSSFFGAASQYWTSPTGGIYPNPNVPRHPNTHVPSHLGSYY
Protocol: TC32 were grown to ~70% confluency and cells were treated for 15 hours with small molecule. Nuclear lysate was collected using the Active Motif Magnetic Co-IP Kit (Active Motif). Protein concentration was determined using bicinchoninic acid protein assay for each lysate (Pierce) and lysate was bound to 1μg of antibody overnight at 4C on a rotating axis with addition of same concentration of small molecule as used for 15 hour treatment. Magnetic beads (Active Motif) were added to the lysates and tumbled for 2 hours at 4C. Immunoprecipitated proteins were resolved using 10% PAGE and transferred to a polyvinylidene difluoride membrane (Millipore). Membranes were blocked in 5% nonfat dry milk in TTBS (20mM Tris-HCl, 150mM NaCl, 0.5% Tween 20) for 2 hours. FLI1 (Santa Cruz Biotechnologies) and RHA (Abcam) antibodies were used at 1:1000 dilutions in 5% nonfat dry milk for 2 hours. Horseradish peroxidase-linked anti-rabbit antibody (GE Healthcare) was added for 1 hour. Detection was carried out using Millipore Immobilon Western Chemiluminescent HRP Substrate per the manufacturer's instructions (Millipore Corp.). Chemiluminescence was detected using a Fujifilm LAS-3000 imaging system. Densitometry values were obtained using ImageJ software.

A4573 cells = experiment: Cellular proliferation (WST) assay, A4573; conditions: 72 h; A4573, ESFT (Type 3); read-out: IC50 at 3 days (+/− SEM)
Protocol: as §1

Row | SMILES | IC50 (TC71 cells) | IC50 (MDA-MB-231 cells) | IC50 (ASPC1 cells) | D1b/D1a mRNA ratio [1] | luciferase activity compared to vehicle [2] | RHA coimmunoprecipitated with EWS-FLI1 [3] | IC50 [3] | IC50 (A4573 cells) | luciferase activity compared to control ([2]; COS7 cells, 0.3, 1 and 3μM) | fold-difference in IC50 between the racemic and the active enantiomer (TC71 cells; TC71 cells) | more potent at the D1b/D1a reduction than racemic [1]
1 | COc1ccc(C(=O)CC2(O)C(=O)Nc3c(Cl)ccc(Cl)c32)cc1 (stereo not shown) [YK-4-279] | 1830 nM | 820 nM | 14300 nM | reduction in the D1b/D1a levels | not significant | significant reduction in complexed RHA | 4900 nM | 1460 nM | – | – | –
2 | COc1ccc(C(=O)C[C@]2(O)C(=O)Nc3c(Cl)ccc(Cl)c32)cc1 [(R)-YK-4-279] | 20900 nM | 22000 nM | > 30000 nM | maintained a D1b/D1a ratio equivalent to the vehicle treated cells | – | coimmunoprecipitation of EWS-FLI1 with RHA | – | 11700 nM | did not show significant reduction from control | – | –
3 | COc1ccc(C(=O)C[C@@]2(O)C(=O)Nc3c(Cl)ccc(Cl)c32)cc1 [(S)-YK-4-279] | 160 nM | 1170 nM | 8160 nM | reduced this ratio to a level equivalent to the EWS-FLI1 reduction | significantly reduced | significant reduction in complexed RHA | 1800 nM | 230 nM | – | more than a log-fold difference | approximately 35%
